From patent US20230372221A1, “USE OF THIOPYRIDINONE COMPOUNDS FOR PREVENTING THE FORMATION OF CUTANEOUS BLACKHEADS” (L'OREAL, priority 2020, published 2023)

Test system: oxidation of the L-DOPA under the action of the bacterial extract (intracellular extract of Cutibacterium acnes CIP 53.117)
Test: In vitro evaluation of the ability to inhibit the development of the colour (absorbance at 475 nm of L-DOPA + Cutibacterium acnes extract)
Type: biochemical
Conditions: for inhibiting the development of the colour (result in words): compared with Reference (absence of treatment); for optical density at 475 nm: 32° C.; for % inhib (percentage of inhibition of the formation of the coloured product): from initial rate of oxidation between 10 and 40 minutes vs reference composition
Excerpt: This method is based on the measurement of absorbance, over time, carried out directly on a composition formed of a mixture of intracellular extract of bacteria of Cutibacterium acnes type, of 3,4-dihydroxy-L-phenylalanine (L-DOPA) and of a test compound. The measurements are compared with those carried out for a mixture of an intracellular extract of bacteria of Cutibacterium acnes type and of 3,4-dihydroxy-L-phenylalanine (L-DOPA), in the absence of test compound (reference). The method is adapted from a method for the enzymatic assay of the tyrosinase activity (Behbahani et al., Microchemical Journal (1993), 47, 251), which is based on the absorbance properties at 475 nm of a coloured intermediate of the pathway for the biosynthesis of melanin starting from L-DOPA, namely dopachrome, a product of the oxidation of L-DOPA. An intracellular extract of bacteria of Cutibacterium acnes CIP 53.117 type stored at 4° C. in the lyophilized form is suspended in 1×PBS (supplied by Gibco BRL Life Technologies) at a concentration of 6 mg/ml. A solution of L-DOPA at a concentration of 0.5 mg/ml is prepared by bringing together L-DOPA (supplied by Sigma-Aldrich) and milliQ water, so as to have an L-DOPA concentration of 1 mg/ml, then diluting with 1×PBS (Dulbecco's Phosphate Buffered Saline, supplied by Gibco BRL Life Technologies). The mixture of 50 μl of these two solutions and of 100 μl of 1×PBS (Dulbecco's Phosphate Buffered Saline, supplied by Gibco BRL Life Technologies) results in a composition with a total volume of 200 μl containing L-DOPA (at a concentration of 125 μg/ml) and Cutibacterium acnes extract (at a concentration of 1.5 mg/ml). The test compositions and the reference composition are introduced separately into wells of a 96-well microplate suitable for reading in visible spectrophotometry, and placed at a temperature of 32° C. The formation of a coloured product is monitored over time by spectrophotometry. To do this, the absorbance, or optical density (O.D.), is measured at 475 nm from the time 0 to the time 2 hours by means of a Spectra Max M5e reader and the Spectra Max software (the time 0 corresponds to the introduction of the composition into the wells). The ability to inhibit the development of the colour of a given compound was assessed by comparing the absorbance measurements obtained for the test compositions with those obtained for the reference composition. More specifically, the inhibitory effect of the test compound was evaluated by comparing the initial rate of oxidation of the L-DOPA under the action of the bacterial extract at 475 nm for the test composition with that of the reference composition in order to obtain a corresponding percentage of inhibition. In practice, the initial rate (Vi) of the oxidation reaction is calculated from the linear part of the curve of the graph of the absorbance values. As this part lies between 10 and 40 minutes (see the graph in FIG. 1), the initial rate of the oxidation reaction is determined using the following relationship: [formula] The percentage of inhibition (% inhib) of a given compound with regard to the formation of the coloured product is subsequently obtained using the values of the initial rate of the oxidation reaction for the reference composition (Viref) and for the test composition ([…]) according to the following relationship: [formula] Within the meaning of the invention, a compound is regarded as having an inhibitory effect if the % inhib value is at least 15%.

[1] = test compound 12.5 μM, duration 0 minutes
[2] = test compound 12.5 μM, duration 10 minutes
[3] = test compound 12.5 μM, duration 20 minutes
[4] = test compound 12.5 μM, duration 30 minutes
[5] = test compound 12.5 μM, duration 40 minutes
[6] = test compound 12.5 μM, duration 60 minutes
[7] = test compound 12.5 μM, duration 80 minutes
[8] = test compound 12.5 μM, duration 100 minutes
[9] = test compound 12.5 μM, duration 120 minutes
[10] = test compound 25 μM, duration 0 minutes
[11] = test compound 25 μM, duration 10 minutes
[12] = test compound 25 μM, duration 20 minutes
[13] = test compound 25 μM, duration 30 minutes
[14] = test compound 25 μM, duration 40 minutes
[15] = test compound 25 μM, duration 60 minutes
[16] = test compound 25 μM, duration 80 minutes
[17] = test compound 25 μM, duration 100 minutes
[18] = test compound 25 μM, duration 120 minutes
[19] = test compound 50 μM, duration 0 minutes
[20] = test compound 50 μM, duration 10 minutes
[21] = test compound 50 μM, duration 20 minutes
[22] = test compound 50 μM, duration 30 minutes
[23] = test compound 50 μM, duration 40 minutes
[24] = test compound 50 μM, duration 60 minutes
[25] = test compound 50 μM, duration 80 minutes
[26] = test compound 50 μM, duration 100 minutes
[27] = test compound 50 μM, duration 120 minutes
[28] = test compound 100 μM, duration 0 minutes
[29] = test compound 100 μM, duration 10 minutes
[30] = test compound 100 μM, duration 20 minutes
[31] = test compound 100 μM, duration 30 minutes
[32] = test compound 100 μM, duration 40 minutes
[33] = test compound 100 μM, duration 60 minutes
[34] = test compound 100 μM, duration 80 minutes
[35] = test compound 100 μM, duration 100 minutes
[36] = test compound 100 μM, duration 120 minutes

## CCOC(=O)CNC(=O)c1ccc[nH]c1=S [Compound 5, Ethyl N-[(2-thioxo-1,2-dihydropyridin-3-yl)carbonyl]glycinate]
  inhibiting the development of the colour (result in words): very effective
[1]
  optical density at 475 nm: 0.0531
[2]
  optical density at 475 nm: 0.0535
[3]
  optical density at 475 nm: 0.0550
[4]
  optical density at 475 nm: 0.0559
[5]
  optical density at 475 nm: 0.0572
[6]
  optical density at 475 nm: 0.0601
[7]
  optical density at 475 nm: 0.0636
[8]
  optical density at 475 nm: 0.0659
[9]
  optical density at 475 nm: 0.0674
Test compound 12.5 μM
  % inhib (percentage of inhibition of the formation of the coloured product): 57%
[10]
  optical density at 475 nm: 0.0559
[11]
  optical density at 475 nm: 0.0567
[12]
  optical density at 475 nm: 0.0572
[13]
  optical density at 475 nm: 0.0575
[14]
  optical density at 475 nm: 0.0578
[15]
  optical density at 475 nm: 0.0588
[16]
  optical density at 475 nm: 0.0602
[17]
  optical density at 475 nm: 0.0627
[18]
  optical density at 475 nm: 0.0651
Test compound 25 μM
  % inhib (percentage of inhibition of the formation of the coloured product): 87%
[19]
  optical density at 475 nm: 0.0539
[20]
  optical density at 475 nm: 0.0554
[21]
  optical density at 475 nm: 0.0557
[22]
  optical density at 475 nm: 0.0560
[23]
  optical density at 475 nm: 0.0565
[24]
  optical density at 475 nm: 0.0573
[25]
  optical density at 475 nm: 0.0579
[26]
  optical density at 475 nm: 0.0585
[27]
  optical density at 475 nm: 0.0593
Test compound 50 μM
  % inhib (percentage of inhibition of the formation of the coloured product): 87%
[28]
  optical density at 475 nm: 0.0532
[29]
  optical density at 475 nm: 0.0534
[30]
  optical density at 475 nm: 0.0548
[31]
  optical density at 475 nm: 0.0550
[32]
  optical density at 475 nm: 0.0550
[33]
  optical density at 475 nm: 0.0555
[34]
  optical density at 475 nm: 0.0557
[35]
  optical density at 475 nm: 0.0561
[36]
  optical density at 475 nm: 0.0563
Test compound 100 μM
  % inhib (percentage of inhibition of the formation of the coloured product): 82%

## O=c1cc(CO)occ1O [Kojic acid, kojic acid, reference compound]
  inhibiting the development of the colour (result in words): does not make it possible to inhibit the development of the colour
Listed as kojic acid
  inhibiting the development of the colour (result in words): without effect
[28]
  optical density at 475 nm: 0.0599
[29]
  optical density at 475 nm: 0.0614
[30]
  optical density at 475 nm: 0.0646
[31]
  optical density at 475 nm: 0.0698
[32]
  optical density at 475 nm: 0.0741
[33]
  optical density at 475 nm: 0.0804
[34]
  optical density at 475 nm: 0.0837
[35]
  optical density at 475 nm: 0.0845
[36]
  optical density at 475 nm: 0.0843
Test compound 100 μM
  % inhib (percentage of inhibition of the formation of the coloured product): −1%

## CCNC(=O)c1ccc[nH]c1=S [Compound 1, N-ethyl-2-thioxo-1,2-dihydropyridine-3-carboxamide]
  inhibiting the development of the colour (result in words): very effective
[1]
  optical density at 475 nm: 0.0553
[2]
  optical density at 475 nm: 0.0553
[3]
  optical density at 475 nm: 0.0561
[4]
  optical density at 475 nm: 0.0569
[5]
  optical density at 475 nm: 0.0584
[6]
  optical density at 475 nm: 0.0605
[7]
  optical density at 475 nm: 0.0631
[8]
  optical density at 475 nm: 0.0661
[9]
  optical density at 475 nm: 0.0681
Test compound 12.5 μM
  % inhib (percentage of inhibition of the formation of the coloured product): 66%
[10]
  optical density at 475 nm: 0.0554
[11]
  optical density at 475 nm: 0.0560
[12]
  optical density at 475 nm: 0.0572
[13]
  optical density at 475 nm: 0.0587
[14]
  optical density at 475 nm: 0.0596
[15]
  optical density at 475 nm: 0.0601
[16]
  optical density at 475 nm: 0.0611
[17]
  optical density at 475 nm: 0.0627
[18]
  optical density at 475 nm: 0.0640
Test compound 25 μM
  % inhib (percentage of inhibition of the formation of the coloured product): 60%
[19]
  optical density at 475 nm: 0.0541
[20]
  optical density at 475 nm: 0.0565
[21]
  optical density at 475 nm: 0.0568
[22]
  optical density at 475 nm: 0.0569
[23]
  optical density at 475 nm: 0.0568
[24]
  optical density at 475 nm: 0.0575
[25]
  optical density at 475 nm: 0.0574
[26]
  optical density at 475 nm: 0.0598
[27]
  optical density at 475 nm: 0.0597
Test compound 50 μM
  % inhib (percentage of inhibition of the formation of the coloured product): 96%
[28]
  optical density at 475 nm: 0.0568
[29]
  optical density at 475 nm: 0.0555
[30]
  optical density at 475 nm: 0.0548
[31]
  optical density at 475 nm: 0.0561
[32]
  optical density at 475 nm: 0.0555
[33]
  optical density at 475 nm: 0.0557
[34]
  optical density at 475 nm: 0.0559
[35]
  optical density at 475 nm: 0.0564
[36]
  optical density at 475 nm: 0.0567
Test compound 100 μM
  % inhib (percentage of inhibition of the formation of the coloured product): 100%
